These results are taken from US20210238173A1, “MITOGEN-ACTIVATED PROTEIN KINASE KINASE 7 INHIBITORS” (Yeda Research and Development Co. Ltd., priority 2018, published 2021).

One series concerns pJNK in 3T3 WT cells. Description: In-cell western (ICW) pJNK inhibition in 3T3 WT. It is filed as cell-based. The following applies: 3T3 WT, sorbitol stimulation. The procedure: (§1) HEK293, Beas2B and 3T3 cells were plated 24 hours before procedure on 384 well clear bottom black flat plates (Corning) pre-coated with Fibronectin (Sigma) diluted in PBS to a concentration of 5 μg/ml 45 minutes prior to cells introduction. Cells were plated using Multidrop™ Combi reagent dispenser (Thermo Fisher Scientific). Compound, reagents and antibody dispensing as well as washes were performed with a CyBio liquid handler (Analytik). Cells were pre-incubated with a small molecule or up to 1% DMSO for 2 h before fixation. HEK293, 3T3 or Beas2B cells were treated with 0.6M/0.2M/0.2M D-Sorbitol/PBS (Sigma) for 20/40/40 min. respectively, before fixation. Media was removed and wells were immediately fixed with 150 μl per well of 3.7% formaldehyde/PBS fixing solution for 20 min. Formaldehyde was then aspired and cells were permeabilized with 150 μl of 0.5% Triton x-100/PBS solution for 10 min. After aspiration cells were washed with ice-cold methanol and stored at −20° C., for 10 min. Methanol was aspired and cells were blocked with 150 μl blocking buffer (LICOR) for 90 min. Primary antibody Phospho-SAPK/JNK T183/Y185 (CST; 9251S) was diluted 1:1000 in blocking buffer and was applied 50 μl per well, except control wells to which only blocking buffer was applied, O.N. (16 h) at 4° C. with mild shaking. Primary antibody was aspired, wells were washed with 150 μl 0.1% Tween20/PBS (Sigma) washing solution three times for 7 min. IRDye® 800CW Goat anti-Rabbit IgG Secondary antibody (LICOR) was then diluted 1:1200 in blocking buffer with 50 μl applied per well on control wells only (no CellTag control), then CellTag700 (1:2000) was added to the solution and 50 μl were added to all experiment wells, for 1 h at room temperature. Wells were aspired and washed again with 150 μl 0.1% Tween20/PBS (Sigma) washing solution three times for 7 min. plate was dried and scanned with Odyssey CLx imaging system at 700 nm and 800 nm (Licor). Wells signals were analyzed with Odyssey software. The signal was normalized by the CellTag700 signal.
(§2) To rapidly assess the cellular activity (EC50) with full dose response curves of the MKK7 covalent inhibitors, according to some embodiments of the present invention, an in-cell western assay was adapted to a 384 well plate format over traditional western blot, and monitored phospho-JNK (pJNK) levels in response to osmotic shock. We first characterized the dynamics of pJNK in response to sorbitol. Sufficient dynamic range for pJNK is achieved at 20 minutes in HEK293 cells and at 40 minutes in 3T3 and Beas2B cells. The compound's activity was assessed by pre-treating cells with either compound or DMSO for 2 hours, followed by Sorbitol stimulation. The response of pJNK, and its substrates, pc-Jun and pATF2, was measured, as well as pP38, which is a substrate of MKK4 but not MKK7, and pERK in HEK293 cells, and the results are presented in Table 5 below.
Wildtype 3T3 cells, 3T3 MKK7 double knock-out (MKK7^−/−) cells and MKK4/7 double knockouts (MKK4/7^−/−) were used to validate on target activity of the MKK7 covalent inhibitors presented herein.

The nature of series [1]: Metabolic stability in rat liver microsomes. The conditions noted are these: for half-life: rat, liver microsomes. It is filed as in vitro ADME. The source says: (§3) A reference compound, REF1250, was used in this study: […]
The nature of series [2]: Metabolic stability in human liver microsomes. Format: in vitro ADME. The following applies: for half-life: human, liver microsomes.
From the text: as §3
For orientation: Liver microsomes are a subcellular fraction often used to study metabolism.

The subject of the next series is pJNK in HEK293 cells. Description: In-cell western (ICW) pJNK inhibition in HEK293. Format: cell-based. The following applies: 2 h pre-incubation, sorbitol stimulation.
A further series has as its target CLK1 (Homo sapiens, UniProt P49759). The series can be described thus: Kinome selectivity screen CLK1. Format: biochemical. The following applies: 1 μM compound. The protocol: (§4) Kinome Selectivity Screen:
(§5) Kinase selectivity was assessed using the Life Technologies SelectScreen Kinase Profiling Service in a custom panel of 76 kinases selected to provide broad representative coverage of all kinase families. Kinase activity assays employed either the Z′-LYTE or Adapta assay technologies with ATP concentrations at or near the KM, ATP for each kinase and a test compound concentration of 1 μM.

The next series has as its target ROCK2 (Homo sapiens, UniProt O75116). Description: Kinome selectivity screen ROCK2. It is filed as biochemical. The conditions noted are these: 1 μM compound. The protocol: as §4, §5
Another series addresses MAPKAPK2 (Homo sapiens, UniProt P49137). The series can be described thus: Kinome selectivity screen MAPKAPK2. Format: biochemical. The conditions noted are these: 1 μM compound. The protocol: as §4, §5
The next series has as its target T1, catalytic domain of MKK7 (Homo sapiens, UniProt O14733).
T1 construct: over-expressing MKK7 (103-426 residues); 6-His (C); made in house; host or cells: E. coli Rosetta2 BL21 (DE3), crude lysate
The series can be described thus: Activity based fluorescent labeling in bacterial lysate overexpressing MKK7. It is filed as binding. The conditions noted are these: pre-incubated with the lysate.

In another series the target is IGF1R (Homo sapiens, UniProt P08069). The series can be described thus: Kinome selectivity screen IGF1R. It is filed as biochemical. The conditions noted are these: 1 μM compound. The procedure: as §4, §5
For the next series, the target named is MET (cMet) (Homo sapiens, UniProt P08581). The series can be described thus: Kinome selectivity screen MET. It is filed as biochemical. The following applies: 1 μM compound. The protocol:
as §4, §5

The target in the next series is EPHA2 (Homo sapiens, UniProt P29317). The series can be described thus: Kinome selectivity screen EPHA2. Format: biochemical. The conditions noted are these: 1 μM compound. The protocol: as §4, §5
For the next series, the target named is GSK3B (GSK3 beta) (Homo sapiens, UniProt P49841). Description: Kinome selectivity screen GSK3B. Format: biochemical. The conditions noted are these: 1 μM compound. The protocol:
as §4, §5

The next series concerns p-cJun in HEK293 cells. Description: p-cJun inhibition in HEK293 cells. It is filed as cell-based. The conditions noted are these: Homo sapiens. The protocol: as §1, with “Primary antibody was aspired, wells were washed with 150 μl 0.1% Tween20/PBS (Sigma) washing solution three times for 7 min. IRDye® 800CW Goat anti-Rabbit IgG Secondary antibody (LICOR) was then diluted 1:1200 in blocking buffer with 50 μl applied per well on control wells only (no CellTag control), then CellTag700 (1:2000) was added to the solution and 50 μl were added to all experiment wells, for 1 h at room temperature. Wells were aspired and washed again with 150 μl 0.1% Tween20/PBS (Sigma) washing solution three times for 7 min. plate was dried and scanned with Odyssey CLx imaging system at 700 nm and 800 nm (Licor).” left out, “The signal was normalized by the CellTag700 signal.” left out
as §2, with “We first characterized the dynamics of pJNK in response to sorbitol. Sufficient dynamic range for pJNK is achieved at 20 minutes in HEK293 cells and at 40 minutes in 3T3 and Beas2B cells.” left out

A further series has as its target FLT4 (VEGFR3) (Homo sapiens, UniProt P35916). The series can be described thus: Kinome selectivity screen FLT4. Format: biochemical. The conditions noted are these: 1 μM compound. The protocol: as §4, §5
The target of the next series is MARK1 (MARK) (Homo sapiens, UniProt Q9P0L2). Description: Kinome selectivity screen MARK1. It is filed as biochemical. The following applies: 1 μM compound. The procedure: as §4, §5
MARK1 (MARK), sequence (Q9P0L2 whole entry): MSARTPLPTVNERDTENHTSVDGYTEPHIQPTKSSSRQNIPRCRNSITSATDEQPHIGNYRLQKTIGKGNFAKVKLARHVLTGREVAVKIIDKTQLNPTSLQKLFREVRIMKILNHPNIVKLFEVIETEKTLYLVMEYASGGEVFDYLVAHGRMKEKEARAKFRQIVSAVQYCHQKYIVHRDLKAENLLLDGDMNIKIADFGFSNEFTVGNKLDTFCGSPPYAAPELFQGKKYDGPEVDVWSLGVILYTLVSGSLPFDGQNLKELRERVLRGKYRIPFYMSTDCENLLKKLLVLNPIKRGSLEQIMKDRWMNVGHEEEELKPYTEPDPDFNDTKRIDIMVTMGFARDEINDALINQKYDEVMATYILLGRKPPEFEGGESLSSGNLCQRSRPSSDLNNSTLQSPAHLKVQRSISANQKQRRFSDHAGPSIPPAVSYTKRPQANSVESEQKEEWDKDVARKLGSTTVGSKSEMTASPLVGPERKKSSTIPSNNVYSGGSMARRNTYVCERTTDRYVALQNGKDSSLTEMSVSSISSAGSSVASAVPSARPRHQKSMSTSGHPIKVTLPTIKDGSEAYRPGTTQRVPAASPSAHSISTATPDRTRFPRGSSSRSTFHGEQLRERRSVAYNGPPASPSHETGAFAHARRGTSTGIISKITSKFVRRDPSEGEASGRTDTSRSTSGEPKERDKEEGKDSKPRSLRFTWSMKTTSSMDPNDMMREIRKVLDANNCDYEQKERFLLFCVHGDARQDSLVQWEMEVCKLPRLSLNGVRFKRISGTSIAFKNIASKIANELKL
For another series, the target named is PRKG2 (PKG2) (Homo sapiens, UniProt Q13237). The series can be described thus: Kinome selectivity screen PRKG2. Format: biochemical. The following applies: 1 μM compound. The procedure:
as §4, §5

In a further series the target is MAP4K4 (HGK) (Homo sapiens, UniProt O95819). The series can be described thus: Kinome selectivity screen MAP4K4. The following applies: 1 μM compound. Format: biochemical. The procedure: as §4, §5
Another series has as its system pP38 in HEK293 cells. Description: pP38 response in HEK293 cells. The following applies: at 10 μM. It is filed as cell-based. The procedure:
as §2
With similar values for pcJun (2.26 μM and 1.67 μM, respectively) and pATF2 (2.79 μM 5.19 μM, respectively).

A further series concerns the target LRRK2 (Homo sapiens, UniProt Q5S007). The series can be described thus: Kinome selectivity screen LRRK2. It is filed as biochemical. The following applies: 1 μM compound. The procedure:
as §4, §5

SMILES strings stand for the structures. Several values for one entry are separate records, joined by “and”; a condition that tells them apart may be missing. Equal entries are not always repeated.

MAPKAPK2, sequence (P49137 whole entry, the tested form may be a part): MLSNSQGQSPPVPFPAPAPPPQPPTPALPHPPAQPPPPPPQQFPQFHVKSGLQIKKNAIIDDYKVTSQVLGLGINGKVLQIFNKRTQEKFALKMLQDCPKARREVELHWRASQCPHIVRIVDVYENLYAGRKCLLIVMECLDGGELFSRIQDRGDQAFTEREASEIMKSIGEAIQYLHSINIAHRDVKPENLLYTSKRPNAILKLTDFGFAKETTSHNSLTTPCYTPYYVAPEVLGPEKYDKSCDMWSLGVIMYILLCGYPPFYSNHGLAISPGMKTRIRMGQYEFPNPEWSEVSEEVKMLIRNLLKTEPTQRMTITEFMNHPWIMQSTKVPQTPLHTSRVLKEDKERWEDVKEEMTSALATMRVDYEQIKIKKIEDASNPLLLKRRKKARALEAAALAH
T1 sequence (O14733 87-410): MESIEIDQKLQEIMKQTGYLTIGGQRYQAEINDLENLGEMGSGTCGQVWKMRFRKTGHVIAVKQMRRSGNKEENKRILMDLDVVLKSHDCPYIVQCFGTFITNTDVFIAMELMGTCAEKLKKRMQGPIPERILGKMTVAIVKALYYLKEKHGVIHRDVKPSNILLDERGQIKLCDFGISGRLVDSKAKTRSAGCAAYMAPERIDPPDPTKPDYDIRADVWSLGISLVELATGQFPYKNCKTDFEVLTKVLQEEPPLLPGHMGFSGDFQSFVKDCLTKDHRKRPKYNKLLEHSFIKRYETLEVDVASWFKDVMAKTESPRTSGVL
MET (cMet), sequence (P08581 25-1390): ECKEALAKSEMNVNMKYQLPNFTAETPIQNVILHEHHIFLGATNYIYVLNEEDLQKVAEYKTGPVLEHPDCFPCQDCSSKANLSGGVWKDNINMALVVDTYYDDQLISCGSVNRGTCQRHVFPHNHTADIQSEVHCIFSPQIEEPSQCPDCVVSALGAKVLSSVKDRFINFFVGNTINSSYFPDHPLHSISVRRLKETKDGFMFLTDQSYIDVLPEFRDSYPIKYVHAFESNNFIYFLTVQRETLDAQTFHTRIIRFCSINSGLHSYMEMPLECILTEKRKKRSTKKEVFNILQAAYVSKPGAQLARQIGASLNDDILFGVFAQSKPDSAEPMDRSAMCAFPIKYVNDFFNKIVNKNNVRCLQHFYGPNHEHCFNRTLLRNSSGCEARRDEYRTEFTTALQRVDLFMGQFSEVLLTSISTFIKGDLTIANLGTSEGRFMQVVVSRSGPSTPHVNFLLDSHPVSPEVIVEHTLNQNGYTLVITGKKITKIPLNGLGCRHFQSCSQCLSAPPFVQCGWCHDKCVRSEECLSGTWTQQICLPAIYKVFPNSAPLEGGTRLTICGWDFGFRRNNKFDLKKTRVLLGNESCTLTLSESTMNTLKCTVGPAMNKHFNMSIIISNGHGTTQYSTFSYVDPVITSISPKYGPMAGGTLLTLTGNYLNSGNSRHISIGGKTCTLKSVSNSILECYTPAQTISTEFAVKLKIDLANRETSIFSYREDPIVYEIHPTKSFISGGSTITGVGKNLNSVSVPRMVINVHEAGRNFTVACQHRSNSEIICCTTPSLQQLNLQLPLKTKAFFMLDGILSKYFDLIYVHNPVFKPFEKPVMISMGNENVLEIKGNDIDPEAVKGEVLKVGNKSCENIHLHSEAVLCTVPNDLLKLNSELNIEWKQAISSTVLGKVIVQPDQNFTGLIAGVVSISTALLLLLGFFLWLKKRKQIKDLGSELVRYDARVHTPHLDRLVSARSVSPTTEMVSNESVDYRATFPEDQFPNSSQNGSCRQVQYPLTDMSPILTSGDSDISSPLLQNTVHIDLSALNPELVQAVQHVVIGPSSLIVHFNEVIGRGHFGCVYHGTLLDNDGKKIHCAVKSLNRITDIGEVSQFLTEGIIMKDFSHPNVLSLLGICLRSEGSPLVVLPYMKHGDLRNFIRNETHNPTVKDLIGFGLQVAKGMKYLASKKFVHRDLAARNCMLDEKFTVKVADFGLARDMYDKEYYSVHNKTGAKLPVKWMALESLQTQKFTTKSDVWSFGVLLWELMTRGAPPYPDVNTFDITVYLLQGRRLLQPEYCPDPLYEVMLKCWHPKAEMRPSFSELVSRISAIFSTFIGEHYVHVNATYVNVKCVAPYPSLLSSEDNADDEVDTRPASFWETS
CLK1, sequence (P49759 whole entry): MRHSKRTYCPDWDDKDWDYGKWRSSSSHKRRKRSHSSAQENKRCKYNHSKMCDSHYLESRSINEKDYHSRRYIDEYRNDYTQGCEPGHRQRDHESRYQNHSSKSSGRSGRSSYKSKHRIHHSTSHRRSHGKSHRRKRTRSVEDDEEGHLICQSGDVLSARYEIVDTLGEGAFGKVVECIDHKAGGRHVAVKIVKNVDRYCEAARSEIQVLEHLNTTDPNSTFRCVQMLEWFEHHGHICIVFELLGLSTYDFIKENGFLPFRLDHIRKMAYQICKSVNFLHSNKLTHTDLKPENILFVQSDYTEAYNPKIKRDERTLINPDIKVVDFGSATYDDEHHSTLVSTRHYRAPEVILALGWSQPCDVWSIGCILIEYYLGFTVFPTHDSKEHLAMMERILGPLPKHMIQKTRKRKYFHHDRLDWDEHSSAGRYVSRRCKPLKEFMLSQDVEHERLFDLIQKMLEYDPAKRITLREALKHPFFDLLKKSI
LRRK2, sequence (Q5S007 970-2527 limits assumed): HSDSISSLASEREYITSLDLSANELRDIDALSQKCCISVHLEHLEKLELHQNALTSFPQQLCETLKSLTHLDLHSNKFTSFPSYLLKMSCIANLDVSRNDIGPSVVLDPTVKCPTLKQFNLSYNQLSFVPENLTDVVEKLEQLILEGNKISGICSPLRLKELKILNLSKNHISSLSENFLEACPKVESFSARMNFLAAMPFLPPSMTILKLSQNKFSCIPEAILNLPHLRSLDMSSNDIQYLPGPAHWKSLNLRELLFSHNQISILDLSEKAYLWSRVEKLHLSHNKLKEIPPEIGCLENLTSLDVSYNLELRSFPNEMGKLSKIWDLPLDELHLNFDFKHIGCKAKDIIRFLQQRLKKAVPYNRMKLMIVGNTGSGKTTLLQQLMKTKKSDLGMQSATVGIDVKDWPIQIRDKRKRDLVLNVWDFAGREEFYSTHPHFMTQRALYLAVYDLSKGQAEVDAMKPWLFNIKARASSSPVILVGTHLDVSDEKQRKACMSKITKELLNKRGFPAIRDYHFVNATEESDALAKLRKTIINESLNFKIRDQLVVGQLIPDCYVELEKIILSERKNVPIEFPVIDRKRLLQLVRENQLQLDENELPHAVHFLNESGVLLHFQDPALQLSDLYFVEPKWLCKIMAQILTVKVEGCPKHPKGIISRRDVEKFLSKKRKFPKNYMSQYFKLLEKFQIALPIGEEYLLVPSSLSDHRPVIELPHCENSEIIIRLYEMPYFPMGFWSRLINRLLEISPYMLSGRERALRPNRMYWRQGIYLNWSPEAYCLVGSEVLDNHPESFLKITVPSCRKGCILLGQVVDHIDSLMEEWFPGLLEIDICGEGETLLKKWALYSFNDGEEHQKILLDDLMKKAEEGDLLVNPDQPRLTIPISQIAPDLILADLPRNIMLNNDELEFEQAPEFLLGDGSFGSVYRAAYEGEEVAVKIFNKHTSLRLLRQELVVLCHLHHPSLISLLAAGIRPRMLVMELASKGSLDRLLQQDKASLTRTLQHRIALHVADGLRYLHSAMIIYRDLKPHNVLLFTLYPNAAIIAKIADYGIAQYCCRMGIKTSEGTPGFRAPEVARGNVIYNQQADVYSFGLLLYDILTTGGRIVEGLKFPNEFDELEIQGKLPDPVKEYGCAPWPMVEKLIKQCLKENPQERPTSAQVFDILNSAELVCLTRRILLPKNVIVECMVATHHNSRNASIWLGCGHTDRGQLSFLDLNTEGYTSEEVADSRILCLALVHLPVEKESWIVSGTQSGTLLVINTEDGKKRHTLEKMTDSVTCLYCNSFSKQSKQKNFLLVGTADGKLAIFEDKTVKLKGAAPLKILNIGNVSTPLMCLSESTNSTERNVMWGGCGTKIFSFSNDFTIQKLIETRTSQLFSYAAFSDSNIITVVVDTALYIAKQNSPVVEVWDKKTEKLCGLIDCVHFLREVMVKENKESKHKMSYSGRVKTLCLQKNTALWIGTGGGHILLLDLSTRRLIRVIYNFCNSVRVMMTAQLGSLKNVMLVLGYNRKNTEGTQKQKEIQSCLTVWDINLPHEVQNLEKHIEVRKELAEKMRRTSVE

In the case of `C=CC(=O)Nc1cccc(-c2n[nH]c3c2CCCC3)c1` [GO4], the EC50 (usually the concentration that produces a half-maximal response) in the series with pJNK in 3T3 WT cells (ICW, 2 h pre-incubation) is > 10000 nM; with pJNK in HEK293 cells (HEK293, ICW), 5200 nM. Also, in the series with pJNK in 3T3 WT cells, 18200 nM corresponded to half-maximal inhibition (IC50). Also, the “% remaining @ 40 min” value in series [1] and in [2] was 0% each time. Besides, the half-life in series [1] and in [2] was < 5 min each time.

In the case of `C=CC(=O)Nc1cccc(-c2n[nH]c3ccccc23)c1` [GO32], the inhibition (usually the relative decrease from the control value, in per cent) at 1 µM was 14% at CLK1; -2% against ROCK2; 2% at MAPKAPK2; 6% against IGF1R; 9% on MET (cMet); -16% against EPHA2. Besides, the inhibition at 1 µM was -10% against GSK3B (GSK3 beta); -2% at FLT4 (VEGFR3); 14% against MARK1 (MARK); -2% against PRKG2 (PKG2); 58% against MAP4K4 (HGK); 95% against LRRK2. The IC50 (as a rule, the concentration that inhibits the measured activity by half) in the series with pJNK in 3T3 WT cells was found to be 5150 nM. Moreover, on catalytic domain of MKK7, the “competition of PCM548 binding” value was “able to compete PCM548 binding”. Further, the “% remaining @ 40 min” value in [1] and in series [2] was 0% throughout. The half-life in series [1] and in [2] was < 5 min in each case. Moreover, the EC50 with pJNK in HEK293 cells (HEK293, ICW) is 2060 nM; in the series with p-cJun in HEK293 cells, 2260 nM. Moreover, in the series with pP38 in HEK293 cells, the “effect on pP38 levels” value is “no effect”.

As to `C=CC(=O)Nc1cccc(-c2n[nH]c3cc(C)ccc23)c1` [GO80], the inhibition at 1 µM against CLK1 was 2%; against ROCK2, -4%; against MAPKAPK2, 1%; at IGF1R it was 7%; against MET (cMet), 13%; against EPHA2, -13%. Also, the inhibition at 1 µM against GSK3B (GSK3 beta) is -8%; at FLT4 (VEGFR3) it was 0%; on MARK1 (MARK), 4%; at PRKG2 (PKG2), 0%; against MAP4K4 (HGK), 42%; against LRRK2 it was 94%. The compound further displayed an IC50 in the series on pJNK in 3T3 WT cells of 4050 nM. The “competition of PCM548 binding” value at catalytic domain of MKK7 is “able to compete PCM548 binding”. In addition, the “% remaining @ 40 min” value in [1] amounted to 1%; in series [2], 0%. The half-life (in general, how long it takes for the measured level to halve) in series [1] is 6 min; in series [2], < 5 min. Besides, the EC50 in the series on pJNK in HEK293 cells (HEK293, ICW) was 1300 nM and 800 nM; with pJNK in HEK293 cells (Homo sapiens, HEK293, HEK293, ICW), 1260 nM; in the series with p-cJun in HEK293 cells it was 1670 nM. Further, the “effect on pP38 levels” value with pP38 in HEK293 cells is “did not affect”.
